Several values for one entry are separate records, joined by “and”; a condition that tells them apart may be missing. Equal values may be shown once. Read-outs that look alike come from different tables or passages of the source.
Legend:
[1] = test system: tobacco plants expressing wheat HPPD (A7WK82); test: Glasshouse spray test on transgenic tobacco expressing wheat HPPD; type: in vivo; conditions: 14 DAT
Procedure: (§1) The CTP/HPPD encoding nucleotide sequence is edited by PCR (or initially synthesized) to include a 5′ XhoI site, a TMV omega enhancer (SEQ ID NO: 86) and a 3′ KpnI site (and to remove any such internal sites).
For example, a master plate of Agrobacterium tumefaciens containing the HPPD expressing binary vector is used to inoculate 10 ml LB (L broth) containing 100 mg/l rifampicin plus 50 mg/l kanamycin using a single bacterial colony. This is incubated overnight at 28° C. shaking at 200 rpm. This entire overnight culture is used to inoculate a 50 ml volume of LB containing the same antibiotics. Again this is cultured overnight at 28° C. shaking at 200 rpm. The Agrobacterium cells are pelleted by centrifuging at 3000 rpm for 15 minutes and then resuspended in MS (Murashige and Skoog) medium containing 30 g/l sucrose, pH 5.9 to an OD (600 nM)=0.6. This suspension is dispensed in 25 ml aliquots into petri dishes.
Clonally micro-propagated tobacco shoot cultures are used to excise young (not yet fully expanded) leaves. The mid rib and outer leaf margins are removed and discarded, and the remaining lamina cut into 1 cm squares. These are transferred to the Agrobacterium suspension for 20 minutes. […]
(§2) As shoots start to regenerate from the callusing leaf explants, these are removed to Shoot elongation medium (MS medium, 30 g/l sucrose, 8 g/l plantagar, 100 mg/l kanamycin, 200 mg/l timentin, 250 mg/l carbenicillin, pH 5.9). Stable transgenic plants readily root within 2 weeks. […]
(§3) Putative transgenic plants that are rooting and showing vigorous shoot growth on the medium incorporating kanamycin are analysed by PCR using primers that amplified a 500 bp fragment within the HPPD transgene. […]
(§4) A sub-set of about 30 plants were then selected on the basis of similar size from each population for spray testing. […] Plants were assessed for damage and scored at 14 days after treatment (DAT). […]

[2] = molecular target: T1, Avena-derived HPPD SEQ ID NO: 1 (Avena sativa, UniProt A0ACD5V6K6, DEL109-109); test: biochemical; type: binding; conditions: for Off rate k1, individual experiments / koff: direct or indirect radiochemical method
Procedure: On rates (governed by an association rate constant, kon) for the formation of the enzyme:inhibitor complexes, EI and off rates (governed by a dissociation rate constant, koff) were determined by methods known in the art and essentially as described in Hawkes et al. (2001) Proc. Bright. Crop. Prot. Conf. Weeds, 2:563-568 and in PCT Publication No. WO 02/46387).
Off rates (k1 in the scheme below) were derived from exchange rate studies where either the test inhibitor, I, or its exchange partner, J were radiolabelled and the data fit according to the scheme below. As noted in Hawkes et al. (2001) Proc. Bright. Crop. Prot. Conf.
After 30 minutes the exchange reaction was initiated with addition of 100 μl 1 mM ‘cold’ structure A with thorough mixing, and, immediately, 150 μl were withdrawn and loaded onto a NAP5 column, the protein exchanged into 50 mM BisTrisPropane buffer at pH 7.0 containing 0.1M KCl by rapid (<2 min) chromatography down a NAP5 G25 Sephadex® column (GE Healthcare Ltd, Buckinghamshire UK) and the amount of ^14C bound to protein measured by Optiphase scintillant using a Tri-Carb® 2900TR scintillation counter (Perkin Elmer, Wellesley, Mass.). Further aliquots were removed and measured in the same way at various times over minutes or hours as required in order to determine the exchange kinetics.
In this case, off rates were determined by preincubating ˜200 pmoles HPPD in reaction buffer (50 mM BTP pH 7, 25 mM Na ascorbate, 4 μg/ml bovine catalase, and 10% glycerol) containing ˜1.0 nmoles ^14C inhibitor at 25° C. in a total assay volume of 1.3 ml. After 30 minutes the reaction vessel was transferred to ice. After a further 10 minutes at ice temperature the exchange reaction was initiated by addition of 100 μl 1 mM Structure A, with thorough mixing, and 150 μl was withdrawn, loaded and quickly exchanged down a NAP5 column in a cold room at ˜5-8° C. in order to quantify the amount of radiolabel remaining bound to the protein at various time from the start of exchange at ice temperature.
Off rates (k1) of HPPD inhibitors that are not readily available radiolabelled or that present other measurement problems (for example high levels of background non-specific protein-binding which can be measured as radiolabel binding that persists in the presence of high concentrations of ‘cold’ inhibitor) may be measured indirectly. […] Exemplary methods are also described in PCT Publication No. WO 02/46387.

[3] = test system: tobacco plants expressing Pseudomonas fluorescens HPPD (SEQ ID NO: 14); test: Glasshouse spray test on transgenic tobacco expressing Pseudomonas HPPD; type: in vivo; conditions: 600 g/ha isoxaflutole, 14 DAT
Procedure: as §1
(§5) For example, a master plate of Agrobacterium tumefaciens containing the HPPD expressing binary vector is used to inoculate 10 ml LB (L broth) containing 100 mg/l rifampicin plus 50 mg/l kanamycin using a single bacterial colony. This is incubated overnight at 28° C. shaking at 200 rpm. This entire overnight culture is used to inoculate a 50 ml volume of LB containing the same antibiotics. Again this is cultured overnight at 28° C. shaking at 200 rpm. […]
as §2, §3, §4

[4] = test system: tobacco plants expressing Arabidopsis HPPD (SEQ ID NO: 13); test: Glasshouse spray test on transgenic tobacco expressing Arabidopsis HPPD; type: in vivo; conditions: 600 g/ha isoxaflutole, 14 DAT
Procedure: as §1, §5, §2, §3, §4

[5] = molecular target: T1, Avena-derived HPPD SEQ ID NO: 1; test: On rate (kon, k2) of enzyme:inhibitor complex formation; type: binding; conditions: read-out: On rate, activity based method
[6] = molecular target: T1, Avena-derived HPPD SEQ ID NO: 1; test: HPPD assay for KmHPP and kcat (HPLC/UV quantitation of homogentisate); type: biochemical; conditions: 25° C.
Procedure: The assay solution was transferred to Chromacol 03-CVG HPLC vials, sealed and the amount of homogentisate formed in a 40 μl aliquot determined by injection onto a reverse phase Aqua C18 5μ 75×4.6 mm HPLC column running 5.5% acetonitrile 0.1% TFA (Buffer A) at 1.5 ml/min. The column was eluted at 1.5 ml/minute using a 2 minute wash in buffer A, followed by a 2 minute wash in a 30/70 mixture of buffer A and 100% acetonitrile, and a further 3.5 minute wash in buffer A. The elution of homogentisate was monitored by UV at 292 nm and the amount formed in each reaction quantified by comparison with a standard calibration curve.
Km and Vmax values were determined (for example FIG. 1) using a non linear least squares fit using Grafit 4™ software (Erithacus Software, Middlesex, UK). Kcat values were determined by dividing the maximum rate, Vmax expressed in nmol/s by the number of nmoles of HPPD enzyme (based on the concentration determined by active-site titration).
For the alternative assumption of one active site per monomer then calculated kcat values should simply be correspondingly and systematically halved.

[7] = Kd of inhibitor over Km HPP of SEQ ID NO: 1
[8] = 25° C., individual measurements
[9] = 25° C., read-out: Off rate k1 / koff (average or final estimate)
[10] = 25° C., individual measurements, read-out: Off rate k1, individual experiments

CS(=O)(=O)c1ccc(C(=O)C2C(=O)CCCC2=O)c([N+](=O)[O-])c1 [Compound B, mesotrione]
Events exhibiting < or equal to 10% damage ([1]; 600 g/ha mesotrione): Five out of 33

CCOc1c(S(C)(=O)=O)ccc(C(=O)C2C(=O)CC(C)CC2=O)c1Cl (stereo not shown) [Compound A]
Kd/Km ratio [2, 7]: 0.000036

CS(=O)(=O)c1cc(C(F)(F)F)ccc1C(=O)c1cnoc1C1CC1 [isoxaflutole]
Bleaching ([1]; 600 g/ha isoxaflutole): Full and Green and Partly
Events showing less than 20% damage ([1]; 600 g/ha isoxaflutole): 3/33
Bleaching [3]: Full and Partly
Plants showing 50% damage or less [3]: 4/32
Bleaching [4]: Full

CS(=O)(=O)c1ccc(C(=O)C2C(=O)CCCC2=O)c(Cl)c1COCC(F)(F)F [Compound E]
Kd [2]: 0.228 nM
Kd/Km ratio [2]: 0.000042
Off rate k1, individual experiments [2, 8]: 2.02E-05 s^−1 and 3.00E-05 s^−1 and 3.67E-05 s^−1 and 3.17E-05 s^−1 (2×) and 2.67E-05 s^−1 (2×) and 3.33E- 05 s^−1
koff ([2]; read-out: Off rate k1, individual experiments, 25° C., individual measurements): 3.08e-05 s⁻¹

COCCOCc1nc(C(F)(F)F)ccc1C(=O)C1C(=O)C2CCC(C2)C1=O (stereo not shown) [Compound C]
Kd [2]: 7.1 nM
koff [2, 9]: 5.3e-05 s⁻¹
koff [2, 10]: 5.67e-05 s⁻¹
Kd/Km ratio [2, 7]: 0.0013

CS(=O)(=O)c1cc(C(F)(F)F)ccc1C(=O)C(C#N)C(=O)C1CC1 (stereo not shown) [Compound D]
kon [5]: 57000 M⁻¹ s⁻¹
Kd [2]: 1.36 nM
koff [2, 9]: 4.39e-05 s⁻¹
koff [2, 10]: 4.5e-05 s⁻¹
Kd/Km ratio [2, 7]: 0.00025

Cc1c(C(=O)C2C=NN(C)C2=O)ccc(S(C)(=O)=O)c1C1=NOCC1 (stereo not shown) [Compound F]
koff [2, 9]: 6.72e-05 s⁻¹
Off rate k1, individual experiments [2, 8]: 6e-05 s⁻¹ and 7e-05 s⁻¹ and 6.83e-05 s⁻¹
koff [2, 10]: 7.08e-05 s⁻¹

B1: SEQ ID NO: 1: the HPPD amino acid sequence of Avena sativa (protein, listed as Avena sativa)
chain: MPPTPATATGAAAAAVTPEHAARSFPRVVRVNPRSDRFPVLSFHHVELWCADAASAAGRFSFALGAPLAARSDLSTGNSAHASLLLRSGALAFLFTAPYAPPPQEAATAATASIPSFSADAARTFAAAHGLAVRSVGVRVADAAEAFRVSVAGGARPAFAPADLGHGFGLAEVELYGDVVLRFVSYPDETDLPFLPGFERVSSPGAVDYGLTRFDHVVGNVPEMAPVIDYMKGFLGFHEFAEFTAEDVGTTESGLNSVVLANNSEAVLLPLNEPVHGTKRRSQIQTYLEYHGGPGVQHIALASNDVLRTLREMRARTPMGGFEFMAPPQAKYYEGVRRIAGDVLSEEQIKECQELGVLVDRDDQGVLLQIFTKPVGDRPTFFLEMIQRIGCMEKDEVGQEYQKGGCGGFGKGNFSELFKSIEDYEKSLEVKQSVVAQKS
Km ([6]; pH 7.0): 5.38 µM
kcat average ([6]; one active-site per dimer assumed): 6.46 s⁻¹

Source: patent US10053675B2, “Hydroxyphenylpyruvate dioxygenase polypeptides and methods of use” (SYNGENTA PARTICIPATIONS AG, priority 2009, dated 2018)
